# Measurements reported in ChEMBL document CHEMBL5728679, “Imidazopyridinyl compounds and use thereof for treatment of neurodegenerative disorders” (2021).
# Biological target: Tyrosine-protein kinase ABL1 (Homo sapiens, UniProt P00519)
# Assay: Kinase Assay: c-abl: ADP-Glo assay kit was purchased from Promega. Magnesium chloride (MgCl2), bovine serum albumin (BSA), ethylene glycol-bis(p-aminoethyl ether)-N,N,N′,N′-tetraacetic acid (EGTA), triton X-100, 1,4-dithiothreitol (DTT) and dimethyl sulfoxide (DMSO) were purchased from Sigma-Aldrich. HEPES buffer was purchased from Gibco. ABL1 kinase and Abltide were purchased from Signalchem.c-Abl kinase activity was measured by Promega's ADP-Glo™ Assay. In this assay, His-tagged recombinant human ABL1 (0.25 ng/μl) is incubated with 5 μL of compounds (0.5% DMSO), 5 μL of Abltide (0.01 μg/μl) and 5 μL of ATP (25 μM) in buffer (50 mM HEPES, 7.5; 10 mM MgCl2; 1 mM EGTA; 0.05% BSA; 0.01% Triton X-100; 2 mM DTT). The assay was started by incubating the reaction mixture in a 96-well plate at 30° C. for 30-min. After the incubation, 25 μL ADP-Glo reagent was added and the reaction was incubated at room temperature for 40-min to stop the reaction and degrade residual ATP. The ADP product was then converted to ATP by adding 50 μL per well of detection reagent. Luminescence was detected after 30-min room temperature incubation with the Molecular device I3X plate reader. The IC50 values were calculated from a series of percent inhibition values determined at a range of inhibitor concentration using software routines as implemented in the GraphPad Prism 7 software and Sigma Plot 13.0.
# Tyrosine-protein kinase ABL1, sequence (P00519 whole entry): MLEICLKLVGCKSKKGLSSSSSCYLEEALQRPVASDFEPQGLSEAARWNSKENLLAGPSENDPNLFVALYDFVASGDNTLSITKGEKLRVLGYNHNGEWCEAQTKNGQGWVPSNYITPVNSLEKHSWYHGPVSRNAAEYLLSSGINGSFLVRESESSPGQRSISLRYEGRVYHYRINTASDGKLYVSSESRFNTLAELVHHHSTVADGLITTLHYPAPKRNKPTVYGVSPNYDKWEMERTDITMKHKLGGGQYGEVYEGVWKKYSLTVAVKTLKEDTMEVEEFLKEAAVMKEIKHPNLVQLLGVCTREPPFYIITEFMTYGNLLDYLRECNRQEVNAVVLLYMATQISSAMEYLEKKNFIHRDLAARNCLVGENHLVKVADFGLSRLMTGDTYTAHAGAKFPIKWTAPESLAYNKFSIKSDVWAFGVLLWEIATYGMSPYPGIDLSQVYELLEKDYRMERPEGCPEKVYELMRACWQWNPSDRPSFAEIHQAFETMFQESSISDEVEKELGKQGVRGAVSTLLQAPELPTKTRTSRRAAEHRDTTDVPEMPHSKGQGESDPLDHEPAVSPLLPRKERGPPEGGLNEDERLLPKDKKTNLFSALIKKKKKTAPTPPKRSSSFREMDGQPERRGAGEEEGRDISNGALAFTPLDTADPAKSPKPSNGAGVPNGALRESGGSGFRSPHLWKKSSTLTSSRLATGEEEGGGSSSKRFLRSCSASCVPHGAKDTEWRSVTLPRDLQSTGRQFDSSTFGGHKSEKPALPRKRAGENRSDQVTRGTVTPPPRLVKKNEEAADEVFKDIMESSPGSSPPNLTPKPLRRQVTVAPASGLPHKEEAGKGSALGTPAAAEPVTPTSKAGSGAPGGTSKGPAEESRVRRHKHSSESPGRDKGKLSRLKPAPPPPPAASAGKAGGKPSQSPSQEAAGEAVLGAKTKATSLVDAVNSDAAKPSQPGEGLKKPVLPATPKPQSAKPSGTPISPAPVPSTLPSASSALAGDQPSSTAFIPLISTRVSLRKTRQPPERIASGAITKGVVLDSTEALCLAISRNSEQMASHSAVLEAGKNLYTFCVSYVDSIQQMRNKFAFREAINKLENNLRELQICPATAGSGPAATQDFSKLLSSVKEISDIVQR
row,IC50 [µM],Structure (SMILES)
1,< 0.01,Cc1c(F)cccc1-c1ccc2nc(NC(=O)C3CC3(F)F)cn2c1 (centres undefined)
2,< 0.01,COc1ccncc1-c1ccc2nc(NC(=O)[C@@H]3C[C@@H]3F)cn2c1
3,< 0.01,Cc1cc2scnc2cc1-c1ccc2nc(NC(=O)[C@@H]3C[C@@H]3F)cn2c1
4,< 0.01,Cc1cccc(C)c1-c1ccc2nc(NC(=O)[C@@H]3C[C@@H]3F)cn2c1
